Measured values reported in PubChem BioAssay AID1794805 (Yongcheng Song lab at Baylor College of Medicine, 2022).
Active and inactive are the calls of the source.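 Rule for the calls: active = EC50 under 50 µM in a live-cell viability test; inactive = the rest.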

The molecules below were run on HL60 proliferation, XTT absorbance (assay: HL60 leukemia cell growth inhibition, dose response, XTT absorbance (AID 1794805)).

| EC50 | Compound |
| --- | --- |
| 26 µM | O=C(NCC1CCNCC1)c1cc2ccc(-c3ccc(N4CCCC4)cc3)cc2s1 |
| > 51 µM (inactive) | NC(=O)c1ccc(-c2ccc3cc(C(=O)NCC4CCNCC4)sc3c2)cc1 |
| 9.7 µM | O=C(NCC1CCNCC1)c1coc2cc(-c3ccc(N4CCCCC4)cc3)ccc12 |
| 50 µM | O=C(NCC1CCNCC1)c1cc2cc(-c3ccc(N4CCCCC4)cc3)ccc2[nH]1 |
| > 51 µM (inactive) | O=C(NCC1CCNCC1)c1cc2cc(-c3cn[nH]c3)ccc2[nH]1 |
| 9 µM | O=C(NCC1CCNCC1)c1cc2cc(-c3ccc(N4CCCCC4)cc3)ccc2s1 |
| > 51 µM (inactive) | NCc1ccc(-c2ccc3cc(C(=O)NCC4CCNCC4)oc3c2)cc1 |
| 10 µM | O=C(NCC1CCNCC1)c1cc2ccc(-c3ccc(N4CCCCC4)cc3)cc2s1 |
| 50 µM | O=C(NCC1CCNCC1)c1c[nH]c2cc(-c3ccc(N4CCCCC4)cc3)ccc12 |
| 50 µM | O=C(NCC1CCNCC1)c1c[nH]c2cc(-c3ccc(N4CCCC4)cc3)ccc12 |
